Laboratory results as given in US20070293666A1, “Optical Filter and Its Applications, and Porphyrin Compound Used in Optical Filter” (Mitsui Chemicals, Inc., priority 2004, published 2007).

How the values were obtained:
Assay type in all cases: physicochemical
[1] = Absorption spectrum in chloroform (maximum absorption wavelength, gram absorption coefficient, 550/525 nm coefficient ratio); details: for εg (gram absorption coefficient) / λmax: chloroform solution; for Ratio of Absorption Coefficient at 525 nm and 550 nm: coefficient at 550 nm to coefficient at 525 nm
Description: (§1) Compounds represented by the compound Nos. 1-1, 1-2, 1-3, 1-4 and 1-7 (Table 1-1) were synthesized in the same manner as in Examples 1-1 and 1-2. With respect to compounds synthesized in Example 1-2 and Synthesis Example 1-1 along with these compounds, the maximum absorption wavelength (λmax), the gram absorption coefficient (εg) and solubility were measured.
(§2) λmax and εg are values in the chloroform solution, while the solubility is weight % based on acetone.
With respect to the compounds represented by the compound Nos. 1-2, 1-3, 1-6 and 1-7 synthesized in Examples 1-2 and 1-3 (corresponding to compounds (3-B), (3-C), (3-E) and (3-F) respectively) along with the obtained compound (3-A), the maximum absorption wavelength and the ratio of the absorption coefficient at a wavelength of 550 nm to the absorption coefficient at a wavelength of 525 nm, which were measured in a chloroform solvent, are shown in Table 3-1. [drawing 26] [drawing 27] [drawing 28] [drawing 29]

Solubility in acetone = test: Solubility in acetone; set-up: key: ∘: completely dissolved; x: not completely dissolved; details: for Solubility 0.1%: 0.1 weight % based on acetone; for Solubility 0.2%: 0.2 weight % based on acetone; for Solubility 1.0%: 1.0 weight % based on acetone
Description: as §1, §2

[2] = Light transmittance of optical filter (dye-containing acrylic adhesive sheet, 1000 ppm dye); details: dye 1000 (wt)ppm in acrylic adhesive, 25 μm
Description: When the compound (3-A) was dispersed and dissolved in a solvent of ethyl acetate and toluene (weight ratio 50:50) and dried, a dye-containing diluting agent for an acrylic adhesive was prepared such that the dye concentration in the resin was 1000 (wt)ppm. Subsequently, the acrylic adhesive (a copolymer of butyl acrylate and acrylic acid (Product name: DBBOND, manufactured by Diabond Industry Co., Ltd.)) and a dye-containing diluting agent were mixed (weight ratio 80:20), and continuously applied on a mold releasing layer of a mold releasing film comprising a polyethylene terephthalate film and a silicone mold releasing layer according to a bar coating method, and the resulting material was dried. Then, the other mold releasing film was attached to the coating surface to prepare a dye-containing adhesive sheet having a thickness of 25 μm with mold releasing films having different mold releasing forces at both sides.
The mold releasing film on one side of the prepared adhesive sheet was peeled away and the resulting sheet was attached to a transparent acrylic resin (manufactured by Mitsubishi Rayon Co., Ltd., Acrylite, thickness: 2 mm), while the mold releasing film on the other side thereof was further peeled away and an ultraviolet blocking film (manufactured by Teijin Co., Ltd., HB Film, thickness: 75 μm) was attached to prepare an optical filter.
With respect to the obtained optical filter, the light transmittance in a wavelength of from 300 to 800 nm was measured by using a spectrophotometer (Product name: U-3400, manufactured by Hitachi, Ltd.) in accordance with JIS R3106. A percentage of light transmittance at a wavelength of 550 nm to light transmittance at a wavelength of 525 nm was obtained.

[3] = High temperature/high humidity test of optical filter; details: 60° C. and 90% RH
Description: (§3) With respect to the optical filters obtained from the compounds (3-A) and (3-B), environmental accelerated tests of high temperature, high-temperature/high-humidity and artificial sunlight irradiation were carried out. In the test, a constant temperature chamber at 80° C. (DN-61, manufactured by Yamato Scientific Co., Ltd.), a constant temperature and humidity chamber at 60° C. and 90% RH (Product name, FX2200, manufactured by Kusumoto Chemicals, Ltd.) and a solar simulator (manufactured by Ushio Inc.) were respectively used. A visible light ray in a wavelength of from 380 to 780 nm was irradiated on a surface of the ultraviolet blocking film of the above optical filter at 50 mW/cm^2 for a predetermined time in a room at a temperature of 30±10° C. and a humidity of 50±20%.
(§4) The above optical filters were kept under each environmental condition for 500 hours and 1000 hours, and light transmittance of the optical filter was measured by using the spectrophotometer after 500 hours and 1000 hours. An absorption retention rate in a maximum absorption wavelength after each environmental accelerated test was obtained from the above equation (2).

[4] = Light resistance test / artificial sunlight irradiation test of optical filter; details: visible light 380 to 780 nm; for Absorption Retention after Light resistance test for 250 hours: 50 mW/cm^2, 250 hours, 30±10° C., humidity 50±20%
Description: To evaluate light resistance of the dye, a sample prepared in the same method as in evaluation of heat resistance is used. The absorption retention rate represented by the above equation (1) is measured in the same manner as in heat resistance. However, in this case, the obtained sample is not kept under the environment of 80° C., but the above visible light ray is irradiated on a side of the ultraviolet blocking film of the sample in a room at a temperature of 30±10° C., a humidity of 50±20% for a predetermined time. Tmax,1 represents light transmittance in a maximum absorption wavelength after the above visible light ray is irradiated for a predetermined time. When there are a plurality of absorption maxima, Tmax,0 is light transmittance at a maximum absorption wavelength showing the highest absorption coefficient. Tmax,1 represents light transmittance at the same wavelength as that in Tmax,0 or at a maximum absorption wavelength nearest to the wavelength in Tmax,0.
With respect to the optical filters obtained from the compounds (3-A) to (3-F), environmental accelerated tests were carried out by artificial sunlight irradiation using a solar simulator (manufactured by Ushio Inc.). A visible light ray in a wavelength of from 380 to 780 nm was irradiated on the ultraviolet blocking film of the prepared optical filter at 50 mW/cm^2 for 250 hours in a room at a temperature of 30±10° C. and a humidity of 50±20%. At this time, an absorption retention rate represented by the above equation (1) was obtained.
as §3, §4

[5] = High temperature test of optical filter; details: 80° C.
Description: A dye-containing diluting agent was prepared such that the dye concentration in the resin was 1000 (wt)ppm when the dye was dispersed and dissolved in a solvent and dried. Subsequently, an acrylic adhesive (a copolymer of butyl acrylate and acrylic acid (Product name: DBBOND, manufactured by Diabond Industry Co., Ltd.) and the dye-containing diluting agent are mixed (weight ratio 80:20), and continuously applied on a mold releasing layer of a mold releasing film comprising a polyethylene terephthalate film and a silicone mold releasing layer according to the bar coating method, and the resulting material was dried. Due to this, an acrylic adhesive containing the dye having a film thickness of 25 μm was prepared. The prepared adhesive was attached to a transparent acrylic resin (manufactured by Mitsubishi Rayon Co., Ltd., Acrylite, thickness: 2 mm), and the mold releasing film of the adhesive was peeled away and an ultraviolet blocking film (manufactured by Teijin Co., Ltd., HB Film, thickness: 75 μm) was attached to give the sample for evaluation. […]
The above optical filters were kept under each environmental condition for 500 hours and 1000 hours, and light transmittance of the optical filter was measured by using the spectrophotometer after 500 hours and 1000 hours. […]

| Structure (SMILES) | εg (gram absorption coefficient) [1] | λmax [1] [nm] | Solubility 0.1% (Solubility in acetone) | Solubility 0.2% (Solubility in acetone) | Solubility 1.0% (Solubility in acetone) | Light Transmittance at 525 nm [2] [%] | Light Transmittance at 550 nm [2] [%] | T@550/T@525 Light Transmittance Ratio [2] [%] | Absorption retention rate, High temperature/High humidity test, after 500 hours ([3]; 500 hours) [%] | Absorption retention rate, High temperature/High humidity test, After 1000 hours ([3]; 1000 hours) [%] | Maximum Absorption Wavelength ([1]; chloroform solvent) [nm] | Ratio of Absorption Coefficient at 525 nm and 550 nm ([1]; chloroform solvent) | Absorption Retention after Light resistance test for 250 hours [4] [%] | Absorption retention rate, Artificial sunlight irradiation test, after 500 hours ([4]; 50 mW/cm^2, 500 hours) [%] | Absorption retention rate, Artificial sunlight irradiation test, After 1000 hours ([4]; 50 mW/cm^2, 1000 hours) [%] | Absorption retention rate, High temperature test, after 500 hours ([5]; 500 hours) [%] | Absorption retention rate, High temperature test, After 1000 hours ([5]; 1000 hours) [%] | Maximum Absorption Wavelength ([1]; in chloroform) [nm] | gram absorption coefficient ([1]; in chloroform) |
| --- | --- | --- | --- | --- | --- | --- | --- | --- | --- | --- | --- | --- | --- | --- | --- | --- | --- | --- | --- |
| CCCCOc1ccc(C2=c3nc(c4c5cccc6cccc(c3=4)c65)C(c3ccc(OCCCC)cc3)=c3c4c(c5[n]3[Cu][n]3c2c2c(c3C(c3ccc(OCCCC)cc3)=c3nc(c6c7cccc8cccc(c3=6)c87)C=5c3ccc(OCCCC)cc3)-c3cccc5cccc-2c35)-c2cccc3cccc-4c23)cc1 [1-1] | 162,000 | 553 | ∘ | ∘ | x |  |  |  |  |  |  |  |  |  |  |  |  |  |  |
| CCCCCOc1ccc(C2=c3nc(c4c5cccc6cccc(c3=4)c65)C(c3ccc(OCCCCC)cc3)=c3c4c(c5[n]3[Cu][n]3c2c2c(c3C(c3ccc(OCCCCC)cc3)=c3nc(c6c7cccc8cccc(c3=6)c87)C=5c3ccc(OCCCCC)cc3)-c3cccc5cccc-2c35)-c2cccc3cccc-4c23)cc1 [1-2] | 154,000 | 553 | ∘ | ∘ | ∘ | 62.6 | 37.2 | 59 | 91 | 90 | 553 | 2.5 | 95 | 95 | 93 | 100 | 100 |  |  |
| CCCCCCOc1ccc(C2=c3nc(c4c5cccc6cccc(c3=4)c65)C(c3ccc(OCCCCCC)cc3)=c3c4c(c5[n]3[Cu][n]3c2c2c(c3C(c3ccc(OCCCCCC)cc3)=c3nc(c6c7cccc8cccc(c3=6)c87)C=5c3ccc(OCCCCCC)cc3)-c3cccc5cccc-2c35)-c2cccc3cccc-4c23)cc1 [1-3] | 122,000 | 553 | ∘ | ∘ | ∘ | 69.1 | 49.8 | 72 |  |  | 553 | 2.3 | 80 |  |  |  |  |  |  |
| CCCCCCCCCCOc1ccc(C2=c3nc(c4c5cccc6cccc(c3=4)c65)C(c3ccc(OCCCCCCCCCC)cc3)=c3c4c(c5[n]3[Ni][n]3c2c2c(c3C(c3ccc(OCCCCCCCCCC)cc3)=c3nc(c6c7cccc8cccc(c3=6)c87)C=5c3ccc(OCCCCCCCCCC)cc3)-c3cccc5cccc-2c35)-c2cccc3cccc-4c23)cc1 [1-6] | 135,000 | 536 | ∘ | ∘ | ∘ | 61.7 | 57.5 | 93 |  |  | 536 | 1.2 | 97 |  |  |  |  | 536 | 135,000 |
| CCCCCCCCCCOc1ccc(C2=c3nc(c4c5ccc(Cl)c6c(Cl)ccc(c3=4)c65)C(c3ccc(OCCCCCCCCCC)cc3)=c3c4c(c5[n]3[Ni][n]3c2c2c(c3C(c3ccc(OCCCCCCCCCC)cc3)=c3nc(c6c7ccc(Cl)c8c(Cl)ccc(c3=6)c87)C=5c3ccc(OCCCCCCCCCC)cc3)-c3ccc(Cl)c5c(Cl)ccc-2c35)-c2ccc(Cl)c3c(Cl)ccc-4c23)cc1 [1-7] | 122,000 | 552 | ∘ | ∘ | ∘ | 72.0 | 66.6 | 93 |  |  | 552 | 1.4 | 94 |  |  |  |  |  |  |
| CCCCCCCCCCOc1ccc(-c2c3nc(c(-c4ccc(OCCCCCCCCCC)cc4)c4[nH]c(c(-c5ccc(OCCCCCCCCCC)cc5)c5nc(c(-c6ccc(OCCCCCCCCCC)cc6)c6[nH]c2c2c7cccc8cccc(c87)c62)c2c6cccc7cccc(c76)c52)c2c5cccc6cccc(c65)c42)c2c4cccc5cccc(c54)c32)cc1 [1-A] |  |  |  |  |  |  |  |  |  |  |  |  |  |  |  |  |  | 567 | 113,000 |
| c1coc(-c2c3nc(c(-c4ccco4)c4[nH]c(c(-c5ccco5)c5nc(c(-c6ccco6)c6[nH]c2c2c7cccc8cccc(c87)c62)c2c6cccc7cccc(c76)c52)c2c5cccc6cccc(c65)c42)c2c4cccc5cccc(c54)c32)c1 [2-A] |  |  |  |  |  |  |  |  |  |  |  |  |  |  |  |  |  | 563 | 110,000 |
| CC(C)(C)c1ccc(C2=c3nc(c4c5cccc6cccc(c3=4)c65)C(c3ccc(C(C)(C)C)cc3)=c3c4c(c5[n]3[Cu][n]3c2c2c(c3C(c3ccc(C(C)(C)C)cc3)=c3nc(c6c7cccc8cccc(c3=6)c87)C=5c3ccc(C(C)(C)C)cc3)-c3cccc5cccc-2c35)-c2cccc3cccc-4c23)cc1 [3-D] |  |  |  |  |  | 59.7 | 38.1 | 64 |  |  | 546 | 2.2 | 92 |  |  |  |  |  |  |
